Reference: US20150296790A1, “SILICON-CONTAINING COMPOUND AQUEOUS SOLUTION AND ANTIBACTERIAL/ANTIVIRAL AGENT INCLUDING SAID SOLUTION” (JEX CO., LTD., priority 2012, published 2015)

Assay: Solubility of Silicon-Containing Compound E in aqueous CD solutions (clarity and stability, visual)
Assay type: physicochemical
Parameters: key to Solubility of Compound E: Stability: OK: When the aqueous solutions of the CD and the Silicon-Containing Compound E did not exhibit the conditions such as presence of precipitates and deposits, the solutions were considered as stable; NG: When the aqueous solutions of the CD and the Silicon-Containing Compound E exhibited the conditions such as presence of precipitates and deposits, the solutions were not considered as stable; key to Solubility of Compound E: Clarity: When the aqueous solutions of the CD and the Silicon-Containing Compound E were clear, the solutions were rated as “OK”; When the aqueous solutions of the CD and the Silicon-Containing Compound E were not clear, the solutions were rated as “NG”
Settings: purified water
Procedure: To determine “Solubility of Compound E” in the tables, the Silicon-Containing Compound E as another solute was added at respective ratios shown in the respective tables (see “Ratio of Compound E” in the tables) to the respective aqueous CD solutions after evaluation of the solubility of CD, and then the mixture was stirred on a shaker to prepare the respective aqueous solutions of the CD and the Silicon-Containing Compound E. Immediately after preparation of the aqueous solutions of the CD and the Silicon-Containing Compound E, the clarity of the aqueous solutions was visually evaluated. When the aqueous solutions of the CD and the Silicon-Containing Compound E were clear, the solutions were rated as “OK”. When the aqueous solutions of the CD and the Silicon-Containing Compound E were not clear, the solutions were rated as “NG”. “Stability” in “Solubility of Compound E” in the tables was determined by allowing the respective aqueous solutions of the CD and the Silicon-Containing Compound E after preparation to stand at ambient temperature for a predetermined period and then visually evaluating the conditions (such as presence of precipitates and deposits) of the solutions.

[1] = β-CD 1 w/w %, Compound E 0.3 w/w %
[2] = β-CD 1 w/w %, Compound E 0.4 w/w %
[3] = β-CD 1 w/w %, Compound E 0.5 w/w %
[4] = β-CD 1 w/w %, Compound E 0.6 w/w %
[5] = β-CD 1 w/w %, Compound E 0.7 w/w %
[6] = β-CD 1 w/w %, Compound E 0.8 w/w %
[7] = β-CD 1 w/w %, Compound E 0.9 w/w %
[8] = β-CD 1 w/w %, Compound E 1 w/w %
[9] = γ-CD 1 w/w %, Compound E 0.1 w/w %
[10] = γ-CD 1 w/w %, Compound E 0.2 w/w %
[11] = γ-CD 1 w/w %, Compound E 0.3 w/w %
[12] = γ-CD 1 w/w %, Compound E 0.4 w/w %
[13] = γ-CD 1 w/w %, Compound E 0.5 w/w %
[14] = γ-CD 1 w/w %, Compound E 0.6 w/w %
[15] = γ-CD 1 w/w %, Compound E 0.7 w/w %
[16] = γ-CD 1 w/w %, Compound E 0.8 w/w %
[17] = γ-CD 1 w/w %, Compound E 0.9 w/w %
[18] = γ-CD 1 w/w %, Compound E 1 w/w %
[19] = γ-CD 3 w/w %, Compound E 0.1 w/w %
[20] = γ-CD 3 w/w %, Compound E 0.2 w/w %
[21] = γ-CD 3 w/w %, Compound E 0.3 w/w %
[22] = γ-CD 3 w/w %, Compound E 0.4 w/w %
[23] = γ-CD 3 w/w %, Compound E 0.5 w/w %
[24] = γ-CD 3 w/w %, Compound E 0.6 w/w %
[25] = γ-CD 3 w/w %, Compound E 0.7 w/w %
[26] = γ-CD 3 w/w %, Compound E 0.8 w/w %
[27] = γ-CD 3 w/w %, Compound E 0.9 w/w %
[28] = γ-CD 3 w/w %, Compound E 1 w/w %
[29] = γ-CD 6 w/w %, Compound E 0.1 w/w %
[30] = γ-CD 6 w/w %, Compound E 0.2 w/w %
[31] = γ-CD 6 w/w %, Compound E 0.3 w/w %
[32] = γ-CD 6 w/w %, Compound E 0.4 w/w %
[33] = γ-CD 6 w/w %, Compound E 0.5 w/w %
[34] = γ-CD 6 w/w %, Compound E 0.6 w/w %
[35] = γ-CD 6 w/w %, Compound E 0.7 w/w %
[36] = γ-CD 6 w/w %, Compound E 0.8 w/w %
[37] = γ-CD 6 w/w %, Compound E 0.9 w/w %
[38] = γ-CD 6 w/w %, Compound E 1 w/w %
[39] = γ-CD 10 w/w %, Compound E 0.1 w/w %
[40] = γ-CD 10 w/w %, Compound E 0.2 w/w %
[41] = γ-CD 10 w/w %, Compound E 0.3 w/w %
[42] = γ-CD 10 w/w %, Compound E 0.4 w/w %
[43] = γ-CD 10 w/w %, Compound E 0.5 w/w %
[44] = γ-CD 10 w/w %, Compound E 0.6 w/w %
[45] = γ-CD 10 w/w %, Compound E 0.7 w/w %
[46] = γ-CD 10 w/w %, Compound E 0.8 w/w %
[47] = γ-CD 10 w/w %, Compound E 0.9 w/w %
[48] = γ-CD 10 w/w %, Compound E 1 w/w %

Compound: CCCCCCCCCCCCCCCCCC[N+](C)(C)CCC[Si](OCC)(OCC)OCC.[Cl-] [Compound E, Octadecyl dimethyl(3-triethoxysilylpropyl)ammonium chloride]
- Solubility of Compound E: Stability (β-CD 1 w/w %, Compound E 0.2 w/w %): OK
- Solubility of Compound E: Clarity [1]: NG
- Solubility of Compound E: Stability [1]: OK
- Solubility of Compound E: Clarity [2]: NG
- Solubility of Compound E: Stability [2]: OK
- Solubility of Compound E: Clarity [3]: NG
- Solubility of Compound E: Stability [3]: OK
- Solubility of Compound E: Clarity [4]: NG
- Solubility of Compound E: Stability [4]: OK
- Solubility of Compound E: Clarity [5]: NG
- Solubility of Compound E: Stability [5]: OK
- Solubility of Compound E: Clarity [6]: NG
- Solubility of Compound E: Stability [6]: OK
- Solubility of Compound E: Clarity [7]: NG
- Solubility of Compound E: Stability [7]: OK
- Solubility of Compound E: Clarity [8]: NG
- Solubility of Compound E: Stability [8]: OK
- Solubility of Compound E: Clarity [9]: OK
- Solubility of Compound E: Stability [9]: OK
- Solubility of Compound E: Clarity [10]: OK
- Solubility of Compound E: Stability [10]: OK
- Solubility of Compound E: Clarity [11]: OK
- Solubility of Compound E: Stability [11]: OK
- Solubility of Compound E: Clarity [12]: OK
- Solubility of Compound E: Stability [12]: OK
- Solubility of Compound E: Clarity [13]: NG
- Solubility of Compound E: Stability [13]: OK
- Solubility of Compound E: Clarity [14]: NG
- Solubility of Compound E: Stability [14]: OK
- Solubility of Compound E: Clarity [15]: NG
- Solubility of Compound E: Stability [15]: OK
- Solubility of Compound E: Clarity [16]: NG
- Solubility of Compound E: Stability [16]: OK
- Solubility of Compound E: Clarity [17]: NG
- Solubility of Compound E: Stability [17]: OK
- Solubility of Compound E: Clarity [18]: NG
- Solubility of Compound E: Stability [18]: OK
- Solubility of Compound E: Clarity [19]: NG
- Solubility of Compound E: Stability [19]: OK
- Solubility of Compound E: Clarity [20]: NG
- Solubility of Compound E: Stability [20]: OK
- Solubility of Compound E: Clarity [21]: NG
- Solubility of Compound E: Stability [21]: OK
- Solubility of Compound E: Clarity [22]: NG
- Solubility of Compound E: Stability [22]: OK
- Solubility of Compound E: Clarity [23]: NG
- Solubility of Compound E: Stability [23]: OK
- Solubility of Compound E: Clarity [24]: NG
- Solubility of Compound E: Stability [24]: OK
- Solubility of Compound E: Clarity [25]: NG
- Solubility of Compound E: Stability [25]: OK
- Solubility of Compound E: Clarity [26]: NG
- Solubility of Compound E: Stability [26]: OK
- Solubility of Compound E: Clarity [27]: NG
- Solubility of Compound E: Stability [27]: OK
- Solubility of Compound E: Clarity [28]: NG
- Solubility of Compound E: Stability [28]: OK
- Solubility of Compound E: Clarity [29]: NG
- Solubility of Compound E: Stability [29]: OK
- Solubility of Compound E: Clarity [30]: NG
- Solubility of Compound E: Stability [30]: OK
- Solubility of Compound E: Clarity [31]: NG
- Solubility of Compound E: Stability [31]: OK
- Solubility of Compound E: Clarity [32]: NG
- Solubility of Compound E: Stability [32]: OK
- Solubility of Compound E: Clarity [33]: NG
- Solubility of Compound E: Stability [33]: OK
- Solubility of Compound E: Clarity [34]: NG
- Solubility of Compound E: Stability [34]: OK
- Solubility of Compound E: Clarity [35]: NG
- Solubility of Compound E: Stability [35]: OK
- Solubility of Compound E: Clarity [36]: NG
- Solubility of Compound E: Stability [36]: OK
- Solubility of Compound E: Clarity [37]: NG
- Solubility of Compound E: Stability [37]: OK
- Solubility of Compound E: Clarity [38]: NG
- Solubility of Compound E: Stability [38]: OK
- Solubility of Compound E: Clarity [39]: NG
- Solubility of Compound E: Stability [39]: NG
- Solubility of Compound E: Clarity [40]: NG
- Solubility of Compound E: Stability [40]: NG
- Solubility of Compound E: Clarity [41]: NG
- Solubility of Compound E: Stability [41]: NG
- Solubility of Compound E: Clarity [42]: NG
- Solubility of Compound E: Stability [42]: NG
- Solubility of Compound E: Clarity [43]: NG
- Solubility of Compound E: Stability [43]: NG
- Solubility of Compound E: Clarity [44]: NG
- Solubility of Compound E: Stability [44]: NG
- Solubility of Compound E: Clarity [45]: NG
- Solubility of Compound E: Stability [45]: NG
- Solubility of Compound E: Clarity [46]: NG
- Solubility of Compound E: Stability [46]: NG
- Solubility of Compound E: Clarity [47]: NG
- Solubility of Compound E: Stability [47]: NG
- Solubility of Compound E: Clarity [48]: NG
- Solubility of Compound E: Stability [48]: NG
